Measurements: patent US20120277209A1, “PYRAZINE COMPOUNDS AS PHOSPHODIESTERASE 10 INHIBITORS” (Amgen Inc., priority 2009, published 2012)

Each compound was assayed against PDE10 (UniProt Q9Y233) (assay: PDE10 enzyme inhibition, IMAP TR-FRET assay (MPDE10A7 Enzyme Activity and Inhibition)). Conditions: IC50 class against PDE10; read-out: IC50.
Type: biochemical
Experimental: All compounds were divided in five classes based on their IC50 values against PDE10. The range of the IC50 in each class is as follows:
An IMAP TR-FRET assay was used to analyze the enzyme activity (Molecular Devices Corp., Sunnyvale Calif.). 5 μL of serial diluted PDE10A (BPS Bioscience, San Diego, Calif.) or tissue homogenate was incubated with equal volumes of diluted fluorescein labeled cAMP or cGMP for 60 min in 384-well polystyrene assay plates (Corning, Corning, N.Y.) at room temperature. After incubation, the reaction was stopped by adding 60 μL of diluted binding reagents and was incubated for 3 hours to overnight at room temperature. The plates were read on an Envision (Perkin Elmer, Waltham, Mass.) for time resolved fluorescence resonance energy transfer. The data were analyzed with GraphPad Prism (La Jolla, Calif.).
Enzyme Inhibition. To check the inhibition profile, 5 μL of serial diluted compounds were incubated with 5 μL of diluted PDE10 enzyme (BPS Bioscience, San Diego, Calif.) or tissue homogenate in a 384-well polystyrene assay plate (Corning, Corning, N.Y.) for 30 min at room temperature. After incubation, 10 μL of diluted fluorescein labeled cAMP or cGMP substrate were added and incubated for 60 min at room temperature. The reaction was stopped by adding 60 μL of diluted binding reagents and plates were read on an Envision (Perkin Elmer, Waltham, Mass.) for time resolved fluorescence resonance energy transfer. The data were analyzed with GraphPad Prism (La Jolla, Calif.).
The tabulated IC50 data represent an average IC50 data for each compound.
`[2H]C([2H])([2H])C(=O)N1CCC(c2nccnc2Oc2ccc(C(=O)c3nc4ccccc4[nH]3)cc2)CC1` [Example 231, 1-(4-(3-(4-(1H-benzo[d]imidazole-2-carbonyl)phenoxy)pyrazin-2-yl)piperidin-1-yl)perdeuteroethanone] showed an IC50 of less than 25 nM.
For `CC(=O)N1CCCC(c2nccnc2Oc2ccc(C(=O)c3nc4ccccc4[nH]3)cc2)C1` (racemic) [Example 251, 1-(3-(3-(4-(1H-benzo[d]imidazole-2-carbonyl)phenoxy)pyrazin-2-yl)piperidin-1-yl)ethanone 2,2,2-trifluoroacetate], the IC50 was less than 25 nM.
`O=C(c1ccc(Oc2nccnc2-c2ccnc(C(F)(F)F)c2)cc1)c1nc2ccccc2[nH]1` [Example 104, (1H-BENZO[D]IMIDAZOL-2-YL)(4-(3-(2-(TRIFLUOROMETHYL)PYRIDIN-4-YL)PYRAZIN-2-YLOXY)PHENYL)METHANONE] gave an IC50 of less than 25 nM.
`COCC(=O)N1CCC(c2nccnc2Oc2ccc(C(=O)c3nc4ccccc4n3C)cc2)CC1` [Example 243, 2-methoxy-1-(4-(3-(4-(1-methyl-1H-benzo[d]imidazole-2-carbonyl)phenoxy)pyrazin-2-yl)piperidin-1-yl)ethanone] showed an IC50 of less than 25 nM.
Compound `c1ccc2sc(Nc3ccc(Oc4nccnc4C4CCOCC4)cc3)nc2c1` [Example 208, N-(4-(3-(tetrahydro-2H-pyran-4-yl)pyrazin-2-yloxy)phenyl)benzo[d]thiazol-2-amine] has an IC50 of less than 25 nM.
Compound `CC(C)(C)OC(=O)N1CCC(CO)(c2nccnc2Oc2ccc(Nc3nc4ccccc4s3)cc2)CC1` [Example 206, tert-butyl 4-(3-(4-(benzo[d]thiazol-2-ylamino)phenoxy)pyrazin-2-yl)-4-(hydroxymethyl)piperidine-1-carboxylate] has an IC50 of 25 to 100 nM.
For `CN(C)CC(=O)N1CCC(c2nccnc2Oc2ccc(Nc3nc4ccccc4s3)cc2)CC1` [Example 246, 1-(4-(3-(4-(benzo[d]thiazol-2-ylamino)phenoxy)pyrazin-2-yl)piperidin-1-yl)-2-(dimethylamino) ethanone], the IC50 was less than 25 nM.
`OCCN1CCN(c2nccnc2Oc2ccc(Nc3nc4ccccc4s3)cc2)CC1` [Example 79, 2-(4-(3-(4-(benzo[d]thiazol-2-ylamino)phenoxy)pyrazin-2-yl)piperazin-1-yl)ethanol] showed an IC50 of less than 25 nM.
`CN(c1ccc(Oc2nccnc2C2CCOCC2)cc1)c1nc2ccccc2s1` [Example 201, N-METHYL-N-(4-(3-(TETRAHYDRO-2H-PYRAN-4-YL)PYRAZIN-2-YLOXY)PHENYL)BENZO[D]THIAZOL-2-AMINE] was tested, and the IC50 was less than 25 nM.
`O=C(c1ccc(Oc2nccnc2C(=O)NCCO)cc1)c1nc2ccccc2[nH]1` [Example 258, 3-(4-(1H-benzo[d]imidazole-2-carbonyl)phenoxy)-N-(2-hydroxyethyl)pyrazine-2-carboxamide] showed an IC50 of 25 to 100 nM.
In the case of `CC1CN(c2nccnc2Oc2ccc(Nc3nc4ccccc4s3)cc2)CC(=O)N1` (racemic) [Example 94, 4-(3-(4-(benzo[d]thiazol-2-ylamino)phenoxy)pyrazin-2-yl)-6-methylpiperazin-2-one], the IC50 is reported as less than 25 nM.
Work on `OCC1CCCCN1c1nccnc1Oc1ccc(Nc2nc3ccccc3s2)cc1` (stereo not shown) [Example 97, (1-(3-(4-(benzo[d]thiazol-2-ylamino)phenoxy)pyrazin-2-yl)piperidin-2-yl)methanol] yielded an IC50 of less than 25 nM.
`O=C1CCCC(c2nccnc2Oc2ccc(C(=O)c3nc4ccccc4[nH]3)cc2)C1` (racemic) [Example 210, (rac)-3-(3-(4-(1H-benzo[d]imidazole-2-carbonyl)phenoxy)pyrazin-2-yl)cyclohexanone] was tested, and the IC50 was less than 25 nM.
In the case of `c1ccc2sc(Nc3ccc(Oc4nccnc4-c4ccc(N5CCOCC5)cc4)cc3)nc2c1` [Example 139, N-(4-(3-(4-morpholinophenyl)pyrazin-2-yloxy)phenyl)benzo[d]thiazol-2-amine], the IC50 is reported as 100 to 250 nM.
`O[C@H]1CCC[C@@H](c2nccnc2Oc2ccc(Nc3nc4ccccc4s3)cc2)C1` (racemic) [Example 191, (rac)-cis-3-(3-(4-(benzo[d]thiazol-2-ylamino)phenoxy)pyrazin-2-yl)cyclohexanol] showed an IC50 of less than 25 nM.
Work on `N#CC1(c2nccnc2Oc2ccc(Nc3nc4ccccc4s3)cc2)CCOCC1` [Example 200, 4-(3-(4-(BENZO[D]THIAZOL-2-YLAMINO)PHENOXY)PYRAZIN-2-YL)TETRAHYDRO-2H-PYRAN-4-CARBONITRILE] yielded an IC50 of less than 25 nM.
For `O=C(c1ccc(Oc2nccnc2C2(O)CCOCC2)cc1)c1nc2ccccc2[nH]1` [Example 213, (1H-benzo[d]imidazol-2-yl)(4-(3-(4-hydroxytetrahydro-2H-pyran-4-yl)pyrazin-2-yloxy)phenyl)methanone], the IC50 was less than 25 nM.
With `C[C@]1(O)CC[C@@H](c2nccnc2Oc2ccc(C(=O)c3nc4ccccc4[nH]3)cc2)CC1` [Example 196, (1H-benzo[d]imidazol-2-yl)(4-(3-((1S,4S)-4-hydroxy-4-methylcyclohexyl)pyrazin-2-yloxy)phenyl)methanone] the IC50 was less than 25 nM.
`COc1ncccc1-c1nccnc1Oc1ccc(Nc2nc3cccc(F)c3s2)cc1` [Example 151, 7-fluoro-N-(4-(3-(2-methoxypyridin-3-yl)pyrazin-2-yloxy)phenyl)benzo[d]thiazol-2-amine] gave an IC50 of 25 to 100 nM.
In the case of `O=C(c1ccc(Oc2nccnc2C2CCCOC2)cc1)c1nc2ccccc2[nH]1` (stereo not shown) [Example 186, 1H-benzimidazol-2-yl(4-((3-(tetrahydro-2H-pyran-3-yl)-2-pyrazinyl)oxy)phenyl)methanone], the IC50 is reported as less than 25 nM.
`OC[C@@H]1CCN(c2nccnc2Oc2ccc(Nc3nc4ccccc4s3)cc2)C1` [Example 85, (R)-(1-(3-(4-(benzo[d]thiazol-2-ylamino)phenoxy)pyrazin-2-yl)pyrrolidin-3-yl)methanol] was tested, and the IC50 was less than 25 nM.

Same assay, conditions: PDE10 enzyme inhibition; average IC50 data for each compound; read-out: Average IC50
Work on `OC(c1ccc(Oc2nccnc2C2CCOCC2)cc1)c1nc2ccccc2[nH]1` (stereo not shown) yielded an IC50 of 386 nM.
Work on `O=C(c1ccc(Oc2nccnc2[C@H]2CC[C@H](O)CC2)cc1)c1nc2ccccc2[nH]1` yielded an IC50 of 0.426 nM.
`Cc1nnc2n1CCN(c1nccnc1Oc1ccc(C(=O)c3nc4ccccc4[nH]3)cc1)C2` showed an IC50 of 6.03 nM.
Compound `CC(=O)OCC(=O)N1CCC(c2nccnc2Oc2ccc(C(=O)c3nc4ccccc4[nH]3)cc2)CC1` [drawing 991] has an IC50 of 0.0175 nM.
`CC(=O)O[C@@H](C)C(=O)N1CCC(c2nccnc2Oc2ccc(C(=O)c3nc4ccccc4[nH]3)cc2)CC1` (stereo in doubt) was tested, and the IC50 was 0.119 nM.
Work on `CCCOc1nccnc1Oc1ccc(C(=O)c2nc3ccccc3[nH]2)cc1` [drawing 905] yielded an IC50 of 25.2 nM.
`COC(=O)C1(c2nccnc2Oc2ccc(Nc3nc4ccccc4s3)cc2)CCN(C(=O)OC(C)(C)C)CC1` [drawing 869] gave an IC50 of 245 nM.
`C[C@@H](O)C1CCN(c2nccnc2Oc2ccc(C(=O)c3nc4ccccc4[nH]3)cc2)CC1` (stereo in doubt) showed an IC50 of 0.749 nM.
`CC(=O)N1CC[C@@H](c2nccnc2Oc2ccc(C(=O)c3nc4ccccc4[nH]3)cc2)C1` (stereo in doubt) was tested, and the IC50 was 7.63 nM.
`c1ccc2sc(Nc3ccc(Oc4nccnc4-c4cnc5[nH]ccc5c4)cc3)nc2c1` [drawing 765] was tested, and the IC50 was 76 nM.
Work on `C[C@@H](F)C(=O)N1CCC(c2nccnc2Oc2ccc(C(=O)c3nc4ccccc4[nH]3)cc2)CC1` (stereo in doubt) yielded an IC50 of 0.132 nM.
Compound `OCCN1CCN(c2nccnc2Oc2ccc(Nc3nc4ccccc4s3)cc2)CC1` [drawing 720] has an IC50 of 8.44 nM.
`c1ccc2[nH]c(Nc3ccc(Oc4nccnc4C4CCOCC4)cc3)nc2c1` [drawing 863] was tested, and the IC50 was 0.101 nM.
For `OCC1CCCCN1c1nccnc1Oc1ccc(Nc2nc3ccccc3s2)cc1` (stereo not shown) [drawing 730], the IC50 was 21.7 nM.
For `CC#CCOc1nccnc1Oc1ccc(C(=O)c2nc3ccccc3[nH]2)cc1` [drawing 852], the IC50 was 673 nM.
Work on `CC(=O)N1CCC(c2nccnc2Oc2ccc(Nc3nc4ccccc4s3)cc2F)CC1` [drawing 984] yielded an IC50 of 1.12 nM.
In the case of `N#CC1(c2nccnc2Oc2ccc(C(=O)c3nc4ccccc4[nH]3)cc2)CCOCC1` [drawing 868], the IC50 is reported as 2.5 nM.
`C[C@@H]1CN(c2nccnc2Oc2ccc(C(=O)c3nc4ccccc4[nH]3)cc2)CC(=O)N1` (stereo in doubt) gave an IC50 of 2.57 nM.
`OCCC1CCN(c2nccnc2Oc2ccc(Nc3nc4ccccc4s3)cc2)CC1` [drawing 735] was tested, and the IC50 was 9.55 nM.
In the case of `O=C(c1ccc(Oc2nccnc2N2CC[C@@H](O)C2)cc1)c1nc2ccccc2[nH]1` (stereo in doubt), the IC50 is reported as 7.6 nM.
With `O=C(c1ccc(Oc2nccnc2N2CCC(CCO)CC2)cc1)c1nc2ccccc2[nH]1` the IC50 was 4 nM.
Compound `COC[C@@H]1CCCN1c1nccnc1Oc1ccc(C(=O)c2nc3ccccc3[nH]2)cc1` has an IC50 of 1.37 nM.
`COc1cnccc1-c1nccnc1Oc1ccc(Nc2nc3ccccc3s2)cc1` [drawing 961] was tested, and the IC50 was 1.91 nM.

Same assay, conditions: PDE10 enzyme inhibition; chiral compounds separated from racemic mixtures; read-out: IC50
`O[C@@H]1CCC[C@H](c2nccnc2Oc2ccc(Nc3nc4ccccc4s3)cc2)C1` [Example 272, (1R,3S)-3-(3-(4-(benzo[d]thiazol-2-ylamino)phenoxy)pyrazin-2-yl)cyclohexanol] gave an IC50 of less than 25 nM.
In the case of `O=C(c1ccc(Oc2nccnc2[C@@H]2CCC[C@@H](O)C2)cc1)c1nc2ccccc2[nH]1` (stereo in doubt) [Example 274, (1H-benzo[d]imidazol-2-yl)(4-(3-((1R,3R)-3-hydroxycyclohexyl)pyrazin-2-yloxy)phenyl) methanone], the IC50 is reported as less than 25 nM.
